We go through 1 compound from patent US20220193209A1, “COMPOSITIONS AND METHODS FOR REACTIVATING LATENT IMMUNODEFICIENCY VIRUS AND/OR TREATING IMMUNODEFICIENCY VIRUS INFECTION” (The J. David Gladstone institutes, a testamentary trust …, priority 2019, published 2022).

In this assay the target is T1, FOXO3 (Homo sapiens, UniProt O43524).
T1 construct: performed against the FOXO isoforms expressed in K562 cells; endogenous in cells; host or cells: K562
In words: Cellular Thermal Shift Assay (CETSA) in K562 cells, FOXO3. The assay is classed as binding. Particulars: 1 μM. How it is done: K562 cells (ATCC) were maintained in appropriate volume of RPMI medium supplemented with 10% fetal bovine serum (Serum Plus—II, Sigma MO, USA), 100 units/mL penicillin and 100 […] (Corning, VA, USA). Short-term passages (<15) were used for all experiments. For CETSA, K562 cell were freshly seeded the day before the experiment. The day of experiment, equal numbers of cells were counted by Moxi Mini automated cell counter (Orflo) and 0.6×10^6 cells per data point were seeded in T-25 cell culture flasks (VWR, PA, USA) in appropriate volume of culture medium. Cells were exposed to […] AS1842856 or equal volume DMSO for 3 hours in an incubator with 5% CO2 and 37° C. […] The supernatants were transferred to new microcentrifuge tubes and analyzed by SDS-PAGE followed by immunoblotting analysis. […] Immunoblotting results were subjected to densitometric analysis (Image J) and melting temperatures of FOXO1, FOXO3 and FOXO4 were determined by Prism 7 (GraphPad) using nonlinear least-squares regression fit to Y=100/(1+10^(Log IC50−X)*H), where H=Hill slope (variable). The viability of the cells was assessed in triplicate by trypan blue exclusion. […]
Briefly, K562 cells were treated with increasing concentrations of the FOXO1 inhibitor AS1842856 just after HIVGKO infection. After 3-4 days, the percentage of latent cells and productive cells were quantified by FACS. […]

T1 sequence (O43524 whole entry, canonical isoform): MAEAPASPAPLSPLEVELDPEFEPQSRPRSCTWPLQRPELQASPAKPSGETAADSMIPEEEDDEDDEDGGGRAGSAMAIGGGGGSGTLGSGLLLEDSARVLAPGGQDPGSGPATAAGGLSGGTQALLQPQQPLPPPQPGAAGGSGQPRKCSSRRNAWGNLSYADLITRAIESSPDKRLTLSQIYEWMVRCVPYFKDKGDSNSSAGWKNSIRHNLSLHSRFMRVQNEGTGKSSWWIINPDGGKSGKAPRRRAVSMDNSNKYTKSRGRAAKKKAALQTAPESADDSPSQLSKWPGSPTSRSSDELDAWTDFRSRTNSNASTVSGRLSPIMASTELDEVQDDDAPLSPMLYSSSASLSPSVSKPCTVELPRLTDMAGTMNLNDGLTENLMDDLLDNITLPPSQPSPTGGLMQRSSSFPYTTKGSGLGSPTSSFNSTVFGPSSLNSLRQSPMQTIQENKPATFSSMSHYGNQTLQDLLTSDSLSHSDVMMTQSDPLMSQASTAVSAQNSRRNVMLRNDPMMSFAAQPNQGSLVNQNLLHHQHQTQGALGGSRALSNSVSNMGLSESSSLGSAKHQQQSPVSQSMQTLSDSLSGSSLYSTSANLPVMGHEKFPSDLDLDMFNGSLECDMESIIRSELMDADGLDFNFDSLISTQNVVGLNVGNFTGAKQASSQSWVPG

In the case of `CCn1cc(C(=O)O)c(=O)c2c(N)c(F)c(NC3CCCCC3)cc21` [AS1842856, 5-amino-7-(cyclohexylamino)-1-ethyl-6-fluoro-4-oxo-1,4-dihydro-quinoline-3-carboxylic acid], the “change in FOXO3 melting curve” value is “no changes”.
